Values joined by “and” are separate entries in the source; they are usually repeats but may differ in a detail not shown here. Identical values can stand only once. Like-named read-outs stand apart in the source and are kept apart here.
Assays:
[1] = target: T1, Hs-α2β2γ2 GABA-A receptor (Homo sapiens, UniProt P18507+P47869+P47870); assay: cell-based; assay type: cell-based
T1 construct: expressed in transfected cells; host or cells: Xenopus laevis oocytes (cRNA injection)
Method: (§1) cRNAs were in vitro synthesized from linearized plasmids using the M-message M-machine transcription kit (Thermo Fisher, Waltham, MA USA) following the manufacturer’s instructions. The cRNA concentration was adjusted to 1 µg/µL. Preparation and injection of X. laevis oocytes were completed as previously described. The oocytes were injected with 30 nL of a solution containing the cRNA of interest. Injected oocytes were maintained at 19 °C in a survival solution containing (in mM): NaCl, 96; KCl, 2; CaCl2, 1.8; MgCl2, 1; Hepes, 5; Na-pyruvate, 2.5; and gentamycin, 0.025, pH = 7.2 with NaOH, renewed daily.
(§2) Expressed currents were recorded at room temperature using the two-electrode voltage-clamp method 1–3 days after injection. Electrodes were pulled from borosilicate glass (Warner, ref GC150T10) and filled with 3 M KCl. […] Drugs were applied using a gravity-driven perfusion system at a speed of 2 mL/min.
(§3) Oocytes were perfused with the following ND solution (in mM): NaCl, 96; KCl, 3; CaCl2, 0.5; MgCl2, 1; HEPES, 5, with pH set at 7.4 with NaOH at ~1 mL/min. The reversal potential of the Ap-RDL receptor was measured in solutions containing (in mM): NaCl, Na-acetate or TEACl (tetraethylammonium chloride), 100; HEPES, 5 with pH set at 7.4, with NaOH or TEAOH. […] Fipronil or picrotoxin were dissolved at the final concentrations from stock solutions in DMSO (dimethylsulfoxide) at 200 and 10 mM, respectively. The final DMSO concentration was always less than 0.2%.
(§4) With Rel.Cur. the current amplitude at each concentration relative to the current recorded in the absence of antagonist; IC50, the concentration for half-maximum inhibition, log ([Inhib]) the logarithm of the inhibitor concentration, and p a slope factor.
(§5) With t, the time of the recording; Rel.Cur., the current amplitude at each concentration relative to the current recorded in the absence of antagonist; Amp, the amplitude of the exponential, Tau Block, the time constant of the exponential, and R the residual non-inhibited current at the steady-state of the effects. The relative block (Rel.B) is estimated as 1-R expressed in %.

[2] = target: T2, Ap-RDL1 GABAr (Acyrthosiphon pisum, UniProt A0A385J708, C18R); assay: Two-electrode voltage-clamp of GABA-induced currents, Ap-RDL1 expressed in Xenopus laevis oocytes; assay type: cell-based
T2 sequence (A0A385J708 33-567 C18R): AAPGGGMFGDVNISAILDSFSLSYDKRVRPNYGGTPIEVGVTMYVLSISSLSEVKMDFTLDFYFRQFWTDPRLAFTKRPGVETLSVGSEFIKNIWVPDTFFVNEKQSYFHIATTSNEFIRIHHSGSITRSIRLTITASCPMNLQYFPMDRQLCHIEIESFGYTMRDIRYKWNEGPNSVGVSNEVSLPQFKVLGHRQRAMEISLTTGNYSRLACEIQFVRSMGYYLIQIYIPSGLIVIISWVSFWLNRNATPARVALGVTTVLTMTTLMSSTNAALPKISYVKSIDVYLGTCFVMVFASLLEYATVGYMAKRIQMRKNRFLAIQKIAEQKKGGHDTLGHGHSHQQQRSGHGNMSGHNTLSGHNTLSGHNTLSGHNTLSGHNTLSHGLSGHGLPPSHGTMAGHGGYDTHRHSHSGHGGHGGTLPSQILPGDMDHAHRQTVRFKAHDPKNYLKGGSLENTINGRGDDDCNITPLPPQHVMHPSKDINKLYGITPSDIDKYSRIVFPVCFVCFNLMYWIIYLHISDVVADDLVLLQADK
Method: as §1, §2, §3, §4, §5

[3] = target: T3, Vd-RDL1 GABAr (Varroa destructor, UniProt A0A343W7T5); assay: Two-electrode voltage-clamp of GABA-induced currents, Vd-RDL1 expressed in Xenopus laevis oocytes; assay type: cell-based
T3 sequence (A0A343W7T5 35-585): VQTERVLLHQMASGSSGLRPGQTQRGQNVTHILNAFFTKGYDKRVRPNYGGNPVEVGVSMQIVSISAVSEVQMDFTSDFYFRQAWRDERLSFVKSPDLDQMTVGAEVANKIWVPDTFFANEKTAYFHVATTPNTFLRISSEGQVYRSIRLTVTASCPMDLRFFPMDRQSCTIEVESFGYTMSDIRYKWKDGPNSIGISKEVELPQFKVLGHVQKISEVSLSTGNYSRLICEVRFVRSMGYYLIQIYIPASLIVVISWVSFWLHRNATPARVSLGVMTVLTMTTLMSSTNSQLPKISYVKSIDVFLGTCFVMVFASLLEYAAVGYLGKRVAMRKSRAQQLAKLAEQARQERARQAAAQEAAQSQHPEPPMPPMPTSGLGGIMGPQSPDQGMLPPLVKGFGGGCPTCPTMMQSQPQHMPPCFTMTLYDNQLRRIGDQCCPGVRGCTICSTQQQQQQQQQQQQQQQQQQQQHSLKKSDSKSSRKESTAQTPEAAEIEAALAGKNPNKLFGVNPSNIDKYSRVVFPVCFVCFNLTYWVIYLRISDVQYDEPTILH
Method: as §1, §2, §3, §4, §5

[4] = target: T4, Vd-RDL2 GABAr (Varroa destructor, UniProt A0A3G3MDS2); assay: Two-electrode voltage-clamp of GABA-induced currents, Vd-RDL2 expressed in Xenopus laevis oocytes; assay type: cell-based
T4 sequence (A0A3G3MDS2 20-661): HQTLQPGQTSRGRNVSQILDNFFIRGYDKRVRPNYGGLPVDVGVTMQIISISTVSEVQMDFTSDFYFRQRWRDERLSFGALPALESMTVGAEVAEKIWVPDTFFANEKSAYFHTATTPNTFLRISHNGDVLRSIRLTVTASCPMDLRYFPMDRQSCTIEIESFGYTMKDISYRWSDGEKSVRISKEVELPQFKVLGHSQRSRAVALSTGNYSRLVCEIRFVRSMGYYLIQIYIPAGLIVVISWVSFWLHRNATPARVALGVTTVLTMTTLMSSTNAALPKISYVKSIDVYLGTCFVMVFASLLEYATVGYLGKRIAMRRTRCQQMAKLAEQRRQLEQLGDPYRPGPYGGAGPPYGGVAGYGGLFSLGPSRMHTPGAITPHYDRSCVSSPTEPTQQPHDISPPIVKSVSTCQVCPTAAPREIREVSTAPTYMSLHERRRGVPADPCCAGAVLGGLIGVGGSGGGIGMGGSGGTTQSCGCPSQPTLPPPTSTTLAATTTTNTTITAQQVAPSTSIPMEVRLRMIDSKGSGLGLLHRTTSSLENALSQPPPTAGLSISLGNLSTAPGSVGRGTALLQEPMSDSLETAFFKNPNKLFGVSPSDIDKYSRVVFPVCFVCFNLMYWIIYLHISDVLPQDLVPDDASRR
Method: as §1, §2, §3, §4, §5

[5] = target: T5, Hs-α4β2γ2 GABA-A receptor (Homo sapiens, UniProt P18507+P47870+P48169); assay: Two-electrode voltage-clamp of GABA-induced currents, Hs-α4β2γ2 expressed in Xenopus laevis oocytes; assay type: cell-based
T5 construct: expressed in transfected cells; host or cells: Xenopus laevis oocytes (cRNA injection; α4 in pcDNA3.1(+))
Method: as §1, §2, §3, §4
as §5, with “The relative block (Rel.B) is estimated as 1-R expressed in %.” left out

[6] = target: T6, Vd-RDL3 GABAr (Varroa destructor, UniProt A0A343W7T7); assay: Two-electrode voltage-clamp of GABA-induced currents, Vd-RDL3 expressed in Xenopus laevis oocytes; assay type: cell-based
T6 sequence (A0A343W7T7 31-591): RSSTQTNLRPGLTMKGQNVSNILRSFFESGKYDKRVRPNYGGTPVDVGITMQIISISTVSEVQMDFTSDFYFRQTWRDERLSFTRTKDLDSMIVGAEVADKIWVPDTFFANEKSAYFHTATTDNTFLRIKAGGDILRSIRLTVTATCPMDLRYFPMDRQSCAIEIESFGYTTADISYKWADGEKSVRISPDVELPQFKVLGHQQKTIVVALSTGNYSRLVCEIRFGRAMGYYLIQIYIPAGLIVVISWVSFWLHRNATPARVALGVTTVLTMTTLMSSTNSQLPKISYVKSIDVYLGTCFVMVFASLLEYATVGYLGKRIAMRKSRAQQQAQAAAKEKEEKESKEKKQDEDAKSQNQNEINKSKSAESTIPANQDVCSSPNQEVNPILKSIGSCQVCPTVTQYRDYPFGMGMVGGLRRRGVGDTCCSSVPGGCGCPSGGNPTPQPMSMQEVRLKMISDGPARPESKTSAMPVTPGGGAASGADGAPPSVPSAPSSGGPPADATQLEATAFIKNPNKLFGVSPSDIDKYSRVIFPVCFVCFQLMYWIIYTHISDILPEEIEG
Method: as §1, §2, §3, §4, §5

[7] = target: T7, Am-RDL GABAr (Apis mellifera, UniProt A0A8U0Y4W2); assay: Two-electrode voltage-clamp of GABA-induced currents, Am-RDL expressed in Xenopus laevis oocytes; assay type: cell-based
T7 sequence (A0A8U0Y4W2 19-476): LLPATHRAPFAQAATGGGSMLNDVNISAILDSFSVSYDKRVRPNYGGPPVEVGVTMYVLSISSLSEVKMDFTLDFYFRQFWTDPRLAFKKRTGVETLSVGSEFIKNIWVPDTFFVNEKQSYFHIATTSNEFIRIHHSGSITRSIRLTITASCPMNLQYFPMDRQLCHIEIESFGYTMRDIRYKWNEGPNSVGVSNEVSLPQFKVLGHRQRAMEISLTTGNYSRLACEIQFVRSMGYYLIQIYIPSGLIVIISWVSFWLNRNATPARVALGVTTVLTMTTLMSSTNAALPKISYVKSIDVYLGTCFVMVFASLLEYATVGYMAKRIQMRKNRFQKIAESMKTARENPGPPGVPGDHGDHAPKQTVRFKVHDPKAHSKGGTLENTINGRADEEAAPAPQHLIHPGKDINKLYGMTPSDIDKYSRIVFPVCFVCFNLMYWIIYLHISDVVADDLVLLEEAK
Method: as §1, §2, §3, §4, §5

[8] = system: A. pisum RDL1bd; details: text prints the receptor as Ap-RDL1; read-out: IC50 for fipronil; cited from earlier work
[9] = system: A. pisum RDL2b; details: text prints the receptor as Ap-RDL2; read-out: IC50 for fipronil; cited from earlier work
[10] = system: A. pisum RDL1ad; details: read-out: IC50 for fipronil; cited from earlier work
[11] = system: Hs-α1β2γ2; details: read-out: IC50 for fipronil; cited from earlier work
[12] = peak current, oocytes clamped at −60 mV
[13] = dieldrin 1 µM, GABA 100 µM, mono-exponential fit
[14] = IC50 (inhibition of the GABA response), GABA 100 µM, inhibitor co-applied

T5 sequence (P48169 36-554): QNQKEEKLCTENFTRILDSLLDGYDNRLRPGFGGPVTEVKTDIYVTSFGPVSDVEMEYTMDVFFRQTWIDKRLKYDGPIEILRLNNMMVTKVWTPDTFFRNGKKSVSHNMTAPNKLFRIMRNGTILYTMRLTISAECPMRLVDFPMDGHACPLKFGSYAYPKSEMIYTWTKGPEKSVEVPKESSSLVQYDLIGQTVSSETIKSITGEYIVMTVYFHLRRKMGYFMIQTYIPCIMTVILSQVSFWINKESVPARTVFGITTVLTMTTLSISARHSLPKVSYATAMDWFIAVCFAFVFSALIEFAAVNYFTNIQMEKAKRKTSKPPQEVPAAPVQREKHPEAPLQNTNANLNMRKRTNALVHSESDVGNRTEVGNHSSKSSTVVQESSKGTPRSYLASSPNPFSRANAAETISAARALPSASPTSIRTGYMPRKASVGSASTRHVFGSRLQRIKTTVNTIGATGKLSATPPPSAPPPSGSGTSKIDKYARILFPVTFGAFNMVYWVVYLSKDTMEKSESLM
T5 sequence (P47870 25-512 limits assumed): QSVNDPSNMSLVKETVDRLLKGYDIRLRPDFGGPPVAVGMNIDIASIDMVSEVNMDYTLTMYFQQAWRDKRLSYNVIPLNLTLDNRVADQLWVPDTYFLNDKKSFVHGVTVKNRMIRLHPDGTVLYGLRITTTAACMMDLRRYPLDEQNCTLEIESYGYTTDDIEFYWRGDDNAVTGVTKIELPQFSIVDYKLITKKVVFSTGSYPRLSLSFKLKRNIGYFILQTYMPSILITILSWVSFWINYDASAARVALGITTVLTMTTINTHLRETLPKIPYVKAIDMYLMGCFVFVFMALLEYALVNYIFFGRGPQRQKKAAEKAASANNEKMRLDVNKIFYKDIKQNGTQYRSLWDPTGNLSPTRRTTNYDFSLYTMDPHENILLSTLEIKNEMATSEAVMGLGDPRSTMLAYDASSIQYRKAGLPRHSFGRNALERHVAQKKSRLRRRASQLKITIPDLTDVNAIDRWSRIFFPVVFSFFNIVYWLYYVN
T5 sequence (P18507 40-475): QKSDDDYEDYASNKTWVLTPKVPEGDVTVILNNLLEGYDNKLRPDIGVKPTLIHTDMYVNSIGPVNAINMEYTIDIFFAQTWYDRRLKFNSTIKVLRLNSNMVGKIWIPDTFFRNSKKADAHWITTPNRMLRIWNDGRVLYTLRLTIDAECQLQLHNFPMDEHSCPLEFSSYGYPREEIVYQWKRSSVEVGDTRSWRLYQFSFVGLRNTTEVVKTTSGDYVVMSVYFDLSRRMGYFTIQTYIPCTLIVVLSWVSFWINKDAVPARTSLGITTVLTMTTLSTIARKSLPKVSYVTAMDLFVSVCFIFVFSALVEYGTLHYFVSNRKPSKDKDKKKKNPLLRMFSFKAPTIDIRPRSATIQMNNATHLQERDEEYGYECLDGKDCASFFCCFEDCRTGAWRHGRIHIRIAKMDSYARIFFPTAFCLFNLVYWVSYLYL
T1 sequence (P47869 29-451): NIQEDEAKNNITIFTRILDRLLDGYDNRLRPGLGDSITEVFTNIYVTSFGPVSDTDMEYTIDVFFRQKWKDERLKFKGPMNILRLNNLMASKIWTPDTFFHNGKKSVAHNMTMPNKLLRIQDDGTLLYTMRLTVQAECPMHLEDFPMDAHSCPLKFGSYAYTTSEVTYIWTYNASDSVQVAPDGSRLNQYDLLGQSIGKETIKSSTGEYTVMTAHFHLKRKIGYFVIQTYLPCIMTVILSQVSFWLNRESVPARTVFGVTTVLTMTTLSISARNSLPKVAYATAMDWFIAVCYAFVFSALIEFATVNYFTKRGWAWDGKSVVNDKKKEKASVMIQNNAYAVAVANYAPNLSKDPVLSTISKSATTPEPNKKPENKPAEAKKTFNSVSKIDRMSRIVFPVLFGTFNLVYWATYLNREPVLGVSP
T1 sequence (P47870 25-512 limits assumed): as the sequence (P47870 25-512 limits assumed) above
T1 sequence (P18507 40-475): as the sequence (P18507 40-475) above

NCCCC(=O)O [GABA, γ-aminobutyric acid]
p (slope factor) of GABA dose–response curve [1]: 1.4 ± 0.1
p (slope factor) of GABA dose–response curve ([2]; logistic fit): 2.4 ± 0.3
p (slope factor) of GABA dose–response curve ([3]; logistic fit): 2.3 ± 0.2
EC50 [3, 12]: 269000 ± 41000 nM
p (slope factor) of GABA dose–response curve ([4]; logistic fit): 1.8 ± 0.2
p (slope factor) of GABA dose–response curve ([5]; logistic fit): 1.4 ± 0.2
p (slope factor) of GABA dose–response curve ([6]; logistic fit): 2.3 ± 0.1
EC50 [6, 12]: 43100 ± 10400 nM
EC50 [7]: 19300 ± 3500 nM
p (slope factor) of GABA dose–response curve ([7]; logistic fit): 2.1 ± 0.2

ClC1=C(Cl)[C@]2(Cl)[C@@H]3[C@@H]4C[C@@H]([C@H]5O[C@@H]45)[C@@H]3[C@@]1(Cl)C2(Cl)Cl [dieldrin]
Rel.B (steady-state relative block) ([1]; dieldrin 1 µM, GABA 300 µM): 80–91%
Tau-Block (time constant of block) ([1]; dieldrin 1 µM, GABA 300 µM, mono-exponential fit): 2 to 6 min
time to reach steady-state inhibition during successive pulses at the same dose ([2]; Figure 6B, dieldrin 1 µM, GABA 50 µM): more than 10 min
Tau-Block (time constant of block) ([2]; dieldrin 1 µM, repetitive GABA application, mono-exponential fit): 2 to 6 min
Rel.B (steady-state block) ([3]; dieldrin 1 µM, GABA 300 µM): ~20%
Tau-Block (time constant of block) ([3]; dieldrin 1 µM, GABA 300 µM, hard to evaluate, fitted): around 55 min
Rel.B (steady-state relative block) ([4]; dieldrin 1 µM, GABA 100 µM): 51 ± 1%
Tau-Block (time constant of block) [4, 13]: 2 to 6 min
Rel.B (steady-state relative block) ([5]; dieldrin 1 µM, GABA 100 µM): 80–91%
Tau-Block (time constant of block) [5, 13]: 2 to 6 min
Rel.B (steady-state relative block) ([6]; dieldrin 1 µM, GABA 100 µM): 80–91%
Tau-Block (time constant of block) [6, 13]: 2 to 6 min
Rel.B (steady-state relative block) ([7]; dieldrin 1 µM, GABA 100 µM): 80–91%
Tau-Block (time constant of block) [7, 13]: 2 to 6 min

N#Cc1nn(-c2c(Cl)cc(C(F)(F)F)cc2Cl)c(N)c1[S+]([O-])C(F)(F)F (centres unmarked) [fipronil]
IC50 [1, 14]: 1880 nM and 300 to 3000 nM and 1800 nM
IC50 [2, 14]: 310 nM and 300 to 3000 nM
IC50 [3]: > 500000 nM
block of GABA response by fipronil ([3]; fipronil 30 µM, GABA 100 µM): almost no block
IC50 [8]: 180 ± 100 nM
IC50 [4, 14]: 770 nM and 300 to 3000 nM
IC50 [9]: 720 ± 200 nM
IC50 [10]: 640 ± 150 nM
IC50 [6]: 3640 ± 1740 nM
IC50 [11]: 1100 ± 200 nM
IC50 [7]: 70 ± 200 nM

picrotoxin
sensitivity to picrotoxin ([3]; GABA 100 µM): insensitive
block of GABA response by picrotoxin ([3]; picrotoxin 100 µM, GABA 100 µM): 20%
IC50 ([3]; read-out: IC50 (inhibition of the GABA response), GABA 100 µM, inhibitor co-applied): > 500000 nM
